Laboratory results published in patent US12681015B2, “Methods for predicting patient response to DMARDs” (Queen Mary University of London, priority 2019, dated 2026).

Assays:
[1] = known side effect; cited from earlier work
[2] = test system: inflammatory arthritis in mice; test: Inflammatory arthritis in mice treated with MTX plus L002 or MTX plus SB202190; format: in vivo; settings: for anti-arthritic actions of MTX: MTX 25 mg/kg plus inhibitor 20 mg/kg i.p. days 3, 5 and 7; for weight loss, a marker of disease activity / joint inflammation / joint concentrations of LTB4 / joint damage / ability of MTX to regulate neutrophil trafficking to the inflamed joint: MTX plus inhibitor 20 mg/kg; for joint inflammation: 26-point clinical score; for joint concentrations of LTB4: day 8, LC-MS/MS; for joint damage: knee histology, day 8; for ability of MTX to regulate neutrophil trafficking to the inflamed joint: paws, day 8, flow cytometry
Source text: (§1) Plasma was collected by centrifugation and SPM were identified and quantified using LC-MS/MS based lipid mediator profiling (see methods for details). (A) sPLS-DA score plot of identified lipid mediator concentrations (B) Contribution for the top 10 differentially regulated mediators in principle component 1. Results are representative of n=6 volunteers per group with experiments conducted on two distinct occasions. (C-G) Inflammatory arthritis was initiated in mice by the administration of arthritogenic serum on days 0 and 2. […] Disease severity was assessed by measuring (C) disease activity using a 26-point clinical score, (D) joint histology using hematoxylin and eosin staining of knee sections collected 8 days post disease initiation, original magnification=×4 and (E) body weight. (F,G) Eight days post disease initiation joints were collected, (F) leukocytes were liberated from the paws and the number of neutrophils infiltrated into the paw was determined using flow cytometry and fluorescently labelled antibodies. (G) Lipid mediators were extracted and the concentrations of LTB4 were determined using liquid chromatography tandem-mass spectrometry. C, E, F are mean±SEM and G are percentage of vehicle of n=4 mice per group and experiments were conducted on two distinct occasions. Results for D are representative of n=8 mice per group. * p<0.05 vs Vehicle group for C and E using two-way ANOVA, for F one-way ANOVA, for G using one-sample t test. F=femur; m=meniscus; PF=pannus formation; T=tibia.
Plasma was obtained from peripheral blood of healthy volunteers, patients and mouse following centrifugation at 1500×g for 10 min at room temperature. Paws were collected and immediately transferred to liquid nitrogen prior to homogenization in 1 ml ice cold MeOH and homogenized using a glass dounce. All samples for LC-MS/MS-based profiling were extracted using solid-phase extraction columns as in Walker, M. E., Souza, P. R., Colas, R. A. & Dalli, J. “13-Series resolvins mediate the leukocyte-platelet actions of atorvastatin and pravastatin in inflammatory arthritis.” FASEB J 31, 3636-3648 (2017), the contents of which are incorporated herein by reference. Prior to sample extraction, deuterated internal standards, representing each region in the chromatographic analysis (500 pg each) were added to facilitate quantification. Samples were kept at −20° C. for a minimum of 45 min to allow protein precipitation. Supernatants were subjected to solid phase extraction, methyl formate fraction collected, brought to dryness and suspended in phase (methanol/water, 1:1, vol/vol) for injection on a Shimadzu LC-20AD HPLC and a Shimadzu SIL-20AC autoinjector, paired with a QTrap 5500 or QTrap 6500 plus (Sciex). An Agilent Poroshell 120 EC-C18 column (100 mm×4.6 mm×2.7 μm) was kept at 50° C. and mediators eluted using a mobile phase consisting of methanol/water/acetic acid of 20:80:0.01 (vol/vol/vol) that was ramped to 50:50:0.01 (vol/vol/vol) over 0.5 min and then to 80:20:0.01 (vol/vol/vol) from 2 min to 11 min, maintained till 14.5 min and then rapidly ramped to 98:2:0.01 (vol/vol/vol) for the next 0.1 min. This was subsequently maintained at 98:2:0.01 (vol/vol/vol) for 5.4 min, and the flow rate was maintained at 0.5 ml/min. QTrap 5500 or QTrap 6500 plus were operated using a multiple reaction monitoring method as in Walker, M. E., Souza, P. R., Colas, R. A. & Dalli, J. “13-Series resolvins mediate the leukocyte-platelet actions of atorvastatin and pravastatin in inflammatory arthritis.” FASEB J 31, 3636-3648 (2017), the contents of which are incorporated herein by reference. […]

[3] = test system: MTX-induced upregulation of SPM in human peripheral blood; test: Human whole blood incubated with L002 or SB202190, then MTX; plasma SPM by LC-MS/MS; format: cell-based; settings: L002 2 μM or SB202190 5 μM, then MTX 100 nM, 37° C., 45 min
Source text: as §1
Plasma was obtained from peripheral blood of healthy volunteers, patients and mouse following centrifugation at 1500×g for 10 min at room temperature. Paws were collected and immediately transferred to liquid nitrogen prior to homogenization in 1 ml ice cold MeOH and homogenized using a glass dounce. All samples for LC-MS/MS-based profiling were extracted using solid-phase extraction columns as in Walker, M. E., Souza, P. R., Colas, R. A. & Dalli, J. “13-Series resolvins mediate the leukocyte-platelet actions of atorvastatin and pravastatin in inflammatory arthritis.” FASEB J 31, 3636-3648 (2017), the contents of which are incorporated herein by reference. Prior to sample extraction, deuterated internal standards, representing each region in the chromatographic analysis (500 pg each) were added to facilitate quantification. Samples were kept at −20° C. for a minimum of 45 min to allow protein precipitation. Supernatants were subjected to solid phase extraction, methyl formate fraction collected, brought to dryness and suspended in phase (methanol/water, 1:1, vol/vol) for injection on a Shimadzu LC-20AD HPLC and a Shimadzu SIL-20AC autoinjector, paired with a QTrap 5500 or QTrap 6500 plus (Sciex). […]

Compound | High blood pressure, share of people [1] | anti-arthritic actions of MTX [2] | weight loss, a marker of disease activity [2] | joint inflammation [2] | joint concentrations of LTB4 [2] | joint damage [2] | ability of MTX to regulate neutrophil trafficking to the inflamed joint [2] | MTX-induced upregulation of SPM [3] | concentrations of several mediators including PD1, MaR2n-3 DPA and RvD1 [3]
Cc1oncc1C(=O)Nc1ccc(C(F)(F)F)cc1 [Leflunomide] | up to 10% of people |  |  |  |  |  |  |  | 
COc1ccc(S(=O)(=O)ON=C2C=C(C)C(=O)C(C)=C2)cc1 [L002] |  | reversed | increase | increase | increase | increase | reversed | blocking | decreasing
Oc1ccc(-c2nc(-c3ccncc3)c(-c3ccc(F)cc3)[nH]2)cc1 [SB202190] |  | reversed | increase | increase | increase | increase | reversed | blocking | decreasing
